Measurements from article PMC6151437, “Antibacterial Synthetic Peptides Derived from Bovine Lactoferricin Exhibit Cytotoxic Effect against MDA-MB-468 and MDA-MB-231 Breast Cancer Cell Lines” (Molecules : A Journal of Synthetic Chemistry and Natural …, 2017).
Like-named read-outs stand apart in the source and are kept apart here. Bridge positions count the residues as written; N and C are the ends. Square brackets hold non-standard residues; d marks the D form. Ends that are not written are not given here. Peptide text beside a SMILES is read from it. I, II: the chains in the order shown. Ahx = NCCCCCC(=O)O

How the values were obtained:
E. coli ATCC 25922 = assay type: cell-based
Experimental: (§1) The minimal inhibitory concentration (MIC) was determined using a microdilution assay. In brief, bacterial strains were incubated for 18 to 24 h at 37 °C in an Muller Hinton broth (MHB) until an optical density of 0.15 to 0.30 (620 nm) was obtained. 90 µL of MHB was mixed with 90 µL of peptide (440 µg/mL), and using a 96-well microtiter plate peptide, serial dilution (200, 100, 50, 25, 12.5, and 6.2 µg/mL) was performed. 10 µL of inoculum (2 × 10^6 CFU/mL) was added to each well. Final volume in each well was 100 µL. Then they were incubated for 24 h at 37 °C, and the absorbance at 620 nm was measured using an Asys Expert Plus ELISA reader. For determining the minimum bactericidal concentration (MBC), a small sample was taken from each well using an inoculation loop, which was then spread on MHA plates and incubated overnight at 37 °C. […] Each of these tests was performed twice (n = 2).

E. coli ATCC 11775 = assay type: cell-based
Experimental: as §1

[1] = assay type: cell-based, human; details: human
Experimental: (§2) Cytotoxicity assays were performed as previously described. Briefly, breast cancer cell lines (100 µL; 2.5 × 10^3 cells/well) were seeded in 96-well flat bottom tissue culture treated plates and were incubated at 37 °C in a 10% CO2 humidified atmosphere for 24 h, allowing for cell adhesion. Then the media was removed, then 100 µL of FBS (5%) and 100 µL of peptide were added. The peptide final concentration was ranging from 200 to 6.25 µg/mL and the final FBS concentration was 2.5%. Plates were incubated 2 h at 37 °C in a 10% CO2 humidified atmosphere (physiologic pH). Negative controls included medium and water. All controls were prepared in triplicate. Cell viability was determined using the MTT assay after 2 h. For this, 10 µL of MTT solution (5 mg/mL) was added to each well, and the plates were incubated for 2 h at 37 °C. Formazan crystals were clarified by centrifugation, the supernatant was discarded, and the crystals were dissolved in DMSO (100 µL). Absorbance (570 nm) was registered on a Bio-Rad 680 microplate reader. (n = 3).

[2] = assay type: cell-based, human; details: human; remark: listed apart in the source
Experimental: as §2

[3] = test system: human gastric cancer cell line AGS; details: cited from earlier work
[4] = E. coli ATCC 25922, microdilution in MHB, 24 h at 37 °C, absorbance 620 nm, n = 2
[5] = E. coli ATCC 25922, plated on MHA overnight at 37 °C, no bacterial growth, n = 2
[6] = E. coli ATCC 11775, microdilution in MHB, 24 h at 37 °C, absorbance 620 nm, n = 2
[7] = E. coli ATCC 11775, plated on MHA overnight at 37 °C, no bacterial growth, n = 2

Row | Antibacterial Effect MIC (E. coli ATCC 25922; ATCC 25922, 24 h) | Antibacterial Effect MIC (E. coli ATCC 25922; [4]) [µg/mL] | Antibacterial Effect MIC (E. coli ATCC 11775; ATCC 11775, 24 h) | IC50 at 2 h [1] [µM] | IC50 at 2 h [2] [µM] | Antibacterial Effect MIC (E. coli ATCC 11775; E. coli ATCC 11775, value in parentheses, microdilution in MHB, 24 h at 37 °C, n = 2) [µM] | Compound | Antibacterial Effect MBC (E. coli ATCC 25922; ATCC 25922) | Antibacterial Effect MBC (E. coli ATCC 25922; [5]) [µg/mL] | Antibacterial Effect MBC (E. coli ATCC 11775; ATCC 11775) | Antibacterial Effect MIC (E. coli ATCC 11775; [6]) [µg/mL] | Antibacterial Effect MBC (E. coli ATCC 11775; [7]) [µg/mL] | Antibacterial Effect MBC (E. coli ATCC 25922; E. coli ATCC 25922, value in parentheses, plated on MHA overnight at 37 °C, n = 2) [µM] | Antibacterial Effect MBC (E. coli ATCC 11775; E. coli ATCC 11775, value in parentheses, plated on MHA overnight at 37 °C, n = 2) [µM] | IC50 [3] [µM]
1 | 102 µM |  | > 102 µM | > 102 | > 102 |  | CSCC[C@H](NC(=O)[C@H](CCCNC(=N)N)NC(=O)[C@H](Cc1c[nH]c2ccccc12)NC(=O)[C@H](CCC(N)=O)NC(=O)[C@H](Cc1c[nH]c2ccccc12)NC(=O)[C@H](CCCNC(=N)N)NC(=O)[C@H](CCCNC(=N)N)NC(=O)[C@H](C)NC(=O)[C@H](CCCCN)NC(=O)[C@@H](N)Cc1ccccc1)C(=O)N[C@@H](CCCCN)C(=O)N[C@@H](CCCCN)C(=O)N[C@@H](CC(C)C)C(=O)NCC(=O)N[C@@H](C)C(=O)O [[Ala^19]-LfcinB (17–31)] | 102 µM |  | 102 µM |  |  |  |  | 
2 | 88 µM | 200 | > 88 µM | > 88 | > 88 |  | CSCC[C@@H]1NC(=O)[C@H](CCCNC(=N)N)NC(=O)[C@H](Cc2c[nH]c3ccccc23)NC(=O)[C@H](CCC(N)=O)NC(=O)[C@H](Cc2c[nH]c3ccccc23)NC(=O)[C@H](CCCNC(=N)N)NC(=O)[C@H](CCCNC(=N)N)NC(=O)[C@H](C)NC(=O)[C@H](CCCCN)NC(=O)[C@H](Cc2ccccc2)NC(=O)[C@@H](N)CSSC[C@@H](C(N)=O)NC(=O)CCCCCNC(=O)[C@H](C)NC(=O)CNC(=O)[C@H](CC(C)C)NC(=O)[C@H](CCCCN)NC(=O)[C@H](CCCCN)NC1=O [[Ala^19]-LfcinB (17–31)cyc] (H-CFKARRWQWRMKKLGA[Ahx]C-NH2; disulfide 1-18) | 88 µM | 200 | > 88 µM | > 200 | > 200 |  |  | 
3 | 200 µg/mL |  | 200 µg/mL |  |  |  | CSCC[C@@H]1NC(=O)[C@H](CCCNC(=N)N)NC(=O)[C@H](Cc2c[nH]c3ccccc23)NC(=O)[C@H](CCC(N)=O)NC(=O)[C@H](Cc2c[nH]c3ccccc23)NC(=O)[C@H](CCCNC(=N)N)NC(=O)[C@H](CCCNC(=N)N)NC(=O)[C@@H](N)CSSC[C@@H](C(N)=O)NC(=O)CCCCCNC(=O)CNC(=O)[C@H](CC(C)C)NC(=O)[C@H](CCCCN)NC(=O)[C@H](CCCCN)NC1=O [LfcinB (20–30)cyc] (H-CRRWQWRMKKLG[Ahx]C-NH2; disulfide 1-14) | 200 µg/mL |  | 200 µg/mL |  |  |  |  | 
4 | 77 µM | 100 |  |  |  | 153 | N=C(N)NCCC[C@@H]1NC(=O)[C@H](Cc2c[nH]c3ccccc23)NC(=O)[C@H](CCC(N)=O)NC(=O)[C@H](Cc2c[nH]c3ccccc23)NC(=O)[C@H](CCCNC(=N)N)NC(=O)[C@H](CCCNC(=N)N)NC(=O)[C@@H](N)CSSC[C@@H](C(N)=O)NC(=O)CCCCCNC1=O [LfcinB (20–25)cyc] (H-CRRWQWR[Ahx]C-NH2; disulfide 1-9) |  |  |  |  |  | > 153 | 153 | 
5 | 24 µM | 100 | > 48 µM |  |  |  | CSCC[C@H](NC(=O)[C@H](CCCNC(=N)N)NC(=O)[C@H](Cc1c[nH]c2ccccc12)NC(=O)[C@H](CCC(N)=O)NC(=O)[C@H](Cc1c[nH]c2ccccc12)NC(=O)[C@H](CCCNC(=N)N)NC(=O)[C@H](CCCNC(=N)N)NC(=O)[C@H](C)NC(=O)[C@H](CCCCN)NC(=O)[C@@H](N)Cc1ccccc1)C(=O)N[C@@H](CCCCN)C(=O)N[C@@H](CCCCN)C(=O)N[C@@H](CC(C)C)C(=O)NCC(=O)N[C@@H](C)C(=O)NCCCC[C@H](NC(=O)[C@H](C)NC(=O)CNC(=O)[C@H](CC(C)C)NC(=O)[C@H](CCCCN)NC(=O)[C@H](CCCCN)NC(=O)[C@H](CCSC)NC(=O)[C@H](CCCNC(=N)N)NC(=O)[C@H](Cc1c[nH]c2ccccc12)NC(=O)[C@H](CCC(N)=O)NC(=O)[C@H](Cc1c[nH]c2ccccc12)NC(=O)[C@H](CCCNC(=N)N)NC(=O)[C@H](CCCNC(=N)N)NC(=O)[C@H](C)NC(=O)[C@H](CCCCN)NC(=O)[C@@H](N)Cc1ccccc1)C(=O)NCCCCCC(N)=O [[Ala^19]-LfcinB (17–31)2] (I: H-FKARRWQWRMKKLGAK[Ahx]-NH2 / II: H-FKARRWQWRMKKLGA; amide I:16-II:C) | 24 µM | 100 | > 48 µM | > 200 | > 200 |  |  | 
6 | 130 µM |  | 130 µM | > 130 | > 130 |  | RRWQWRMKKLG-NH2 [LfcinB (20–30)] | 130 µM |  | 130 µM |  |  |  |  | > 500

Row | Compound | Antibacterial Effect MIC (E. coli ATCC 25922; ATCC 25922, 24 h) | Antibacterial Effect MIC (E. coli ATCC 25922; [4]) [µg/mL] | Antibacterial Effect MIC (E. coli ATCC 11775; ATCC 11775, 24 h) | IC50 at 2 h [1] [µM] | IC50 at 2 h [2] [µM] | Antibacterial Effect MIC (E. coli ATCC 11775; E. coli ATCC 11775, value in parentheses, microdilution in MHB, 24 h at 37 °C, n = 2) [µM] | Antibacterial Effect MBC (E. coli ATCC 25922; ATCC 25922) | Antibacterial Effect MBC (E. coli ATCC 25922; [5]) [µg/mL] | Antibacterial Effect MBC (E. coli ATCC 11775; ATCC 11775) | Antibacterial Effect MIC (E. coli ATCC 11775; [6]) [µg/mL] | Antibacterial Effect MBC (E. coli ATCC 11775; [7]) [µg/mL] | Antibacterial Effect MBC (E. coli ATCC 25922; E. coli ATCC 25922, value in parentheses, plated on MHA overnight at 37 °C, n = 2) [µM] | Antibacterial Effect MBC (E. coli ATCC 11775; E. coli ATCC 11775, value in parentheses, plated on MHA overnight at 37 °C, n = 2) [µM] | IC50 [3] [µM]
7 | CSCC[C@H](NC(=O)[C@H](CCCNC(=N)N)NC(=O)[C@H](Cc1c[nH]c2ccccc12)NC(=O)[C@H](CCC(N)=O)NC(=O)[C@H](Cc1c[nH]c2ccccc12)NC(=O)[C@H](CCCNC(=N)N)NC(=O)[C@@H](N)CCCNC(=N)N)C(=O)N[C@@H](CCCCN)C(=O)N[C@@H](CCCCN)C(=O)N[C@@H](CC(C)C)C(=O)NCC(=O)NCCCC[C@H](NC(=O)CNC(=O)[C@H](CC(C)C)NC(=O)[C@H](CCCCN)NC(=O)[C@H](CCCCN)NC(=O)[C@H](CCSC)NC(=O)[C@H](CCCNC(=N)N)NC(=O)[C@H](Cc1c[nH]c2ccccc12)NC(=O)[C@H](CCC(N)=O)NC(=O)[C@H](Cc1c[nH]c2ccccc12)NC(=O)[C@H](CCCNC(=N)N)NC(=O)[C@@H](N)CCCNC(=N)N)C(=O)NCCCCCC(N)=O [LfcinB (20–30)2] (I: H-RRWQWRMKKLGK[Ahx]-NH2 / II: H-RRWQWRMKKLG; amide I:12-II:C) | 30 µM | 100 | 60 µM |  |  |  | 60 µM | 200 | 60 µM | 200 | 200 |  |  | 
8 | I: H-RRWQWRMKKLGK[Ahx]C-NH2 / II: H-RRWQWRMKKLGK[Ahx]C-NH2 / III: H-RRWQWRMKKLG / IV: H-RRWQWRMKKLG (amide I:12-III:C, II:12-IV:C; disulfide I:14-II:14) [LfcinB (20–30)4] | 15 µM | 200 | 15 µM |  |  |  | 15 µM | 200 | 15 µM | 200 | 200 |  |  | 
